# In patent publication US20260151403A1, “NEK7 DEGRADERS AND METHODS OF USE THEREOF” (Captor Therapeutics S.A., priority 2022, published 2026):
# Legend:
# [1] = target: T1, [NEK7]-[compound of formula (I)]-[CRBN/DDB1] complex (Homo sapiens, UniProt Q8TDX7+Q96SW2); test: AlphaLISA dose response ternary complex formation assay; assay type: binding; settings: 1 μM compound, normalized to maximum signal of Compound 2 (positive control) and DMSO background; for activation at 1 µM: read-out: Normalized AlphaLISA ternary complex average signal at 1 μM molecule
# T1 sequence (Q8TDX7 whole entry): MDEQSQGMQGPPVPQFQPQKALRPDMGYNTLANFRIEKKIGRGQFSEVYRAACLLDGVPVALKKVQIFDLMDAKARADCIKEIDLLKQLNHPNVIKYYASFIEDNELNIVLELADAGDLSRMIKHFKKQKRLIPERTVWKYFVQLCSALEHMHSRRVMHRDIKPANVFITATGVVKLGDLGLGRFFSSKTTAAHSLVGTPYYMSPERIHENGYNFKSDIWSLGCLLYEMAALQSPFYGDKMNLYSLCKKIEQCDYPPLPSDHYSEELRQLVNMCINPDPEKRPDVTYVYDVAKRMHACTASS
# T1 sequence (Q96SW2 whole entry): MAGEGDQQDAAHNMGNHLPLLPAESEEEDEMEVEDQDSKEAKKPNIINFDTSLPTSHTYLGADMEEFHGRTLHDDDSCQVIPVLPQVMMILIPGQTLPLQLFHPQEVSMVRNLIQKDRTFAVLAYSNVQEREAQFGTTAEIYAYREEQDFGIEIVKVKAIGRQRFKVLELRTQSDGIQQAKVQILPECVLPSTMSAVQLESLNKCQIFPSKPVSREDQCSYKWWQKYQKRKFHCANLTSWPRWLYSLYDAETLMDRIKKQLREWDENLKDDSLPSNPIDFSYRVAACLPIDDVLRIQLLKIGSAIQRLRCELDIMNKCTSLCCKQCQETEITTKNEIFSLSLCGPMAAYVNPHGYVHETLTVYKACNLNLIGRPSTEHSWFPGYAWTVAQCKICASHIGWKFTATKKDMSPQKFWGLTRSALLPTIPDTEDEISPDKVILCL
# T1 sequence (Q16531 whole entry partner): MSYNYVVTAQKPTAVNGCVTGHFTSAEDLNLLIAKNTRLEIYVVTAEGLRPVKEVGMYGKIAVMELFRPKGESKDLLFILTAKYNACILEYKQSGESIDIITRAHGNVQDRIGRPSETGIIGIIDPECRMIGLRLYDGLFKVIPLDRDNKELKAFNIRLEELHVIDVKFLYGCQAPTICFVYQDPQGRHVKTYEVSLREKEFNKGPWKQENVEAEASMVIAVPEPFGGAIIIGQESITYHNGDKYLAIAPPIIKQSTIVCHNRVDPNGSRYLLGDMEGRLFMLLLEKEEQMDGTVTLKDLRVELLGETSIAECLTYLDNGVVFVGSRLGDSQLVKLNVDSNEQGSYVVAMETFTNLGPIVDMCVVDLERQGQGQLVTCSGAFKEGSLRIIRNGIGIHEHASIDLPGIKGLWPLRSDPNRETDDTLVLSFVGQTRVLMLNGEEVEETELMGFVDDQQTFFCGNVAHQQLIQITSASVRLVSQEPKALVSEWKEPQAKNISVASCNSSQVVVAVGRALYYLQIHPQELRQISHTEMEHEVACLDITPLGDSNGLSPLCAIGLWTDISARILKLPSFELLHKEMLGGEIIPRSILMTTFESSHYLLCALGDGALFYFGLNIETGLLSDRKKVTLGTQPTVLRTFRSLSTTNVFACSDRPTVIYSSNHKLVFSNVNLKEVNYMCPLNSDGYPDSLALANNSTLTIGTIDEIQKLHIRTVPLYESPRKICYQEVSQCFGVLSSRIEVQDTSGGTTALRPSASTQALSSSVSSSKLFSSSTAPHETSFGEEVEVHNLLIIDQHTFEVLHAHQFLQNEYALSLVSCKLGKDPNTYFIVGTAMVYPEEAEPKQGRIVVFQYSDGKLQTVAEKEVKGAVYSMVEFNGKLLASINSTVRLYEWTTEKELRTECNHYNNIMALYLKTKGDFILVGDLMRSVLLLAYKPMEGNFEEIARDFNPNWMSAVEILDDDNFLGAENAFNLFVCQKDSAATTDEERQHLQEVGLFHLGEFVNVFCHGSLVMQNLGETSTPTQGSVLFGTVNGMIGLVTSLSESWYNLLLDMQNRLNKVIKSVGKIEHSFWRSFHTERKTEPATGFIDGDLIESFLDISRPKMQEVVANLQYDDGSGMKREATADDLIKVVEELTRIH
# Experimental: The effect of the molecular glue compounds of the invention on the formation of a ternary complex composed of [NEK7]-[compound of formula (I)]-[CRBN/DDB1] was investigated with two methods: AlphaLISA dose response assay or HTRF ternary complex assay.
# Two types of protein solution were prepared: • 200 nM biotinylated NEK7, 40 μg/ml AlphaScreen Streptavidin-coated Donor Beads in HBS (10 mM HEPES, 150 mM NaCL, pH 7.4) buffer with 0.1% Tween-20 and 1 mM DTT, • 200 nM 6×His-CRBN/Strep-DDB1, 40 μg/ml AlphaLISA Anti-6×His Acceptor beads in HBS buffer with 0.1% Tween-20 and 1 mM DTT.
# The prepared solutions were incubated at room temperature for 30 min and then the solution containing the donor beads was mixed with the solution containing the acceptor beads.
# The tested compounds were dispensed onto a white 384-well AlphaPlate 384 SW. DMSO was backfilled to all wells, resulting in a final DMSO content of 2%. Wells containing only DMSO served as background. Next, 10 μl of solution with donor and acceptor beads was added to the wells.
# The plate was sealed with transparent film and shaken using a VibroTurbulator for 60 sec at room temperature, level 3. The plate was then spun down shortly (10 s, 1000 rcf, room temperature) and incubated at 25° C. for 30 min.
# The read-out was performed with PerkinElmer Enspire Multimode Plate Reader (method for AlphaLISA 384-well low volume, Filterset: λexc=680 nm, λem=615 nm).
# The results were analyzed as follows: • 1) an average of luminescence for background signal was calculated and used as a negative control; • 2) average of the maximum measured luminescence for Compound 2 was calculated and used as an internal positive control; • 3) raw luminescence values were normalized against positive and negative controls; • 4) Normalized responses to Compound 2 were determined.
# [2] = target: T1, [NEK7]-[compound of formula (I)]-[CRBN/DDB1] complex; test: HTRF ternary complex assay; assay type: binding; settings: dose-response, 180 min at 25° C.; for EC50: read-out: HTRF ternary complex Average pEC50 by molecule (converted)
# Experimental: The effect of the molecular glue compounds of the invention on the formation of a ternary complex composed of [NEK7]-[compound of formula (I)]-[CRBN/DDB1] was investigated.
# Mix solution of proteins and reagents was prepared: • 24 nM NEK7, 52.8 nM 6×His-CRBN/Strep-DDB1, 3 nM of Streptavidin-Eu cryptate […] and 6.67 nM of Anti-6×his-d2 […] was prepared in PPI Europium detection buffer (Cisbio) with 1 mM DTT.
# The tested compounds in dose-response were dispensed onto a white 384-well low volume plate (Greiner, 784075). DMSO was backfilled to all wells, resulting in a final DMSO content of 0.5%. Wells containing only DMSO served as background.
# The plate was sealed with transparent film and shaken using a VibroTurbulator for 60 sec at level 3.
# The plate was then spun down shortly (10 s, 1000 rcf) and incubated at 25° C. for 180 min.
# The read-out was performed with plate reader (Pherastar, BMG Labtech) in time resolved fluorescence mode. Filterset: TR 337 665 620.
# The results were analyzed as follows: • 1) an average of fluorescence for background signal was calculated and used as a negative control; • 2) raw fluorescence values for tested compounds were normalized against negative controls; • 3) saturation curve was fitted to specific binding with Hill slope model; • 4) EC50 and pEC50 values were determined.
# NEK7-HiBiT protein = NEK7-HiBiT protein (Homo sapiens, UniProt Q8TDX7); test: NEK7-HiBiT degradation assay (Nano-Glo HiBiT Lytic Assay) in HEK293 NEK7-HiBiT cells; assay type: cell-based; settings: 24 h, conc. 0.1, 1 and 10 μM tested, concentration of the table values not stated, mean of 3 technical replicates
# NEK7-HiBiT protein, sequence (Q8TDX7 whole entry): as the sequence (Q8TDX7 whole entry) above
# NEK7-HiBiT protein, sequence (Q96SW2 whole entry, further chain): as the sequence (Q96SW2 whole entry) above
# NEK7-HiBiT protein, sequence (Q16531 whole entry partner): as the sequence (Q16531 whole entry partner) above
# Experimental: HEK293 NEK7-HiBiT cells were generated using CRISPR-Cas9 system. HEK293 cells were transformed with pSpCas9-BB-2A-Puro v2.0 plasmid carrying gRNA targeting the N-terminus of NEK7 and ssODN template containing the HiBiT tag sequence with flanking homology sequences. Neon Transfection System (Thermo Fisher Scientific) was used for electroporation. HEK293 NEK7-HiBiT cells were cultured with DMEM Glutamax (Gibco) supplemented with 10% heat inactivated FBS (Gibco). After transfection the culture medium was changed to DMEM Glutamax with 10% heat-inactivated FBS and 1% Penicillin-Streptomycin (Biowest) supplemented with Puromycin (2 μg/ml; Invivogen) for clonal selection. In order to isolate single cell clones for further validation and analysis, limiting dilution cloning in 96-well plates was performed. When the single clones reached confluency, HiBiT Lytic Assay (Promega) was performed in order to identify HiBiT positive clones. The clone selected for further studies was verified and validated using genotyping and HiBiT Blotting (Promega).
# Selected clone of HEK293 NEK7-HiBiT cells was maintained in the DMEM-Glutamax medium supplemented with 10% of heat-inactivated FBS (Gibco) and 1% of Penicillin-Streptomycin Solution 100x (Biowest) at 37° C., 5% CO2 and subcultured every 2-3 days.
# For Nano-Glo HiBiT Lytic Assay HEK293 NEK7-HiBiT cells were seeded at the density 2×10^3 cells in triplicates in the 40 μL of growth medium per single well on 384 well plate (Greiner Bio-One). Compounds or DMSO were added to treatment plates using Echo555 Liquid Handler and incubated at 37° C., 5% CO2 for 24 hours. After incubation 40 μL of Nano-Glo HiBiT Lytic Reagent (prepared according to the manufacturer protocol) were added to 40 μL of the cell culture medium present in each well. The plate content was briefly mixed (460 rpm) on an orbital shaker to ensure cell lysis. The plate was left at RT protected from light for another 10 min to stabilize the luminescent signal. The luminescence signal was measured using CLARIOstar Multimode Plate Reader. Focus and gain were adjusted to DMSO treated cells. The results were calculated as the NEK7-HiBiT % relative to the DMSO control of 3 technical replicates relative to the DMSO control.
# HEK293 NEK7-HiBiT cells were treated with the compounds (conc. 0.1, 1 and 10 μM) or DMSO for 24 h. After incubation with compounds NEK7-HiBiT degradation was measured as a luminescence signal using CLARIOstar Multimode Plate reader.
# Additionally, compounds reducing NEK7-HiBiT protein level by >=50% at 0.1 μM, were also identified.
Compound,Normalized AlphaLISA ternary complex average signal at 1 μM molecule [1],HTRF ternary complex Average pEC50 by molecule [2],Levels of NEK7-HiBiT Protein (as a % of DMSO control) (NEK7-HiBiT protein),EC50 [2],activation at 1 µM [1]
"CC(C)C1CCC(c2ccc3c(c2)CN(C2CCC(=O)NC2=O)C3=O)NC1 (single isomer, unassigned) [55 Isomer 2, 3-(5-(5-isopropylpiperidin-2-yl)-1-oxoisoindolin-2-yl)piperidine-2,6-dione]",A (Normalized activity > 80%),+++ (6.5 > pEC50 > 6.0),B (Levels of NEK7-HiBiT Protein > 25% and ≤50%),,
"CC(C)C1CCC(c2ccc3c(c2)CN(C2CCC(=O)NC2=O)C3=O)NC1 (single isomer, unassigned) [55 Isomer 1, 3-(5-(5-isopropylpiperidin-2-yl)-1-oxoisoindolin-2-yl)piperidine-2,6-dione]",B (Normalized activity > 20% and <80%),,C (Levels of NEK7-HiBiT Protein > 50% and <75%),316 to 1000 nM,
"CCCCC1CCCC(c2ccc3c(c2)CN(C2CCC(=O)NC2=O)C3=O)N1 (mixture of isomers) [Compound 40, 3-(5-(6-butylpiperidin-2-yl)-1-oxoisoindolin-2-yl)piperidine-2,6-dione]",,,A (Levels of NEK7-HiBiT Protein ≤ 25%),100 to 316 nM,> 80%
"CC1c2cc(-c3ccccn3)ccc2C(=O)N1C1CCC(=O)NC1=O (stereo not drawn) [24(2), 3-(3-methyl-1-oxo-5-(pyridin-2-yl)isoindolin-2-yl)piperidine-2,6-dione]",,,A (Levels of NEK7-HiBiT Protein ≤ 25%),100 to 316 nM,> 80%
"CCCCC1CCC(c2ccc3c(c2)CN(C2CCC(=O)NC2=O)C3=O)OC1 (single isomer, unassigned) [70 Isomer 2, 3-(5-(5-butyltetrahydro-2H-pyran-2-yl)-1-oxoisoindolin-2-yl)piperidine-2,6-dione]",A (Normalized activity > 80%),,B (Levels of NEK7-HiBiT Protein > 25% and ≤50%),1000 to 3160 nM,
"O=C1CCC(N2C(=O)c3ccc(C4CCCCN4)cc3C2=O)C(=O)N1 (stereo not drawn) [Compound 1, 2-(2,6-dioxopiperidin-3-yl)-5-(piperidin-2-yl)isoindoline-1,3-dione]",,,A (Levels of NEK7-HiBiT Protein ≤ 25%),1000 to 3160 nM,20 to 80%
"Cc1cc2c(cc1C1CCCCN1)CN(C1CCC(=O)NC1=O)C2=O (stereo not drawn) [Compound 20, 3-(6-methyl-1-oxo-5-(piperidin-2-yl)isoindolin-2-yl)piperidine-2,6-dione]",,,D (Levels of NEK7-HiBiT Protein ≥ 75%),> 3160 nM,< 10%
"COc1ccnc(-c2ccc3c(c2)CN(C2CCC(=O)NC2=O)C3=O)c1 (stereo not drawn) [27(2), 3-(5-(4-methoxypyridin-2-yl)-1-oxoisoindolin-2-yl)piperidine-2,6-dione]",,,D (Levels of NEK7-HiBiT Protein ≥ 75%),316 to 1000 nM,20 to 80%
"3-(5-((2R,6S)-6-butyltetrahydro-2H-pyran-2-yl)-1-oxoisoindolin-2-yl)piperidine-2,6-dione and 3-(5-((2S,6R)-6-butyltetrahydro-2H-pyran-2-yl)-1-oxoisoindolin-2-yl)piperidine-2,6-dione [69 Isomer 1]",A (Normalized activity > 80%),+++ (6.5 > pEC50 > 6.0),A (Levels of NEK7-HiBiT Protein ≤ 25%),,
"O=C1CCC(N2Cc3cc(C4CCC(c5ccccc5)CN4)ccc3C2=O)C(=O)N1 (single isomer, unassigned) [32 Isomer 2, 3-(1-oxo-5-(5-phenylpiperidin-2-yl)isoindolin-2-yl)piperidine-2,6-dione]",A (Normalized activity > 80%),,A (Levels of NEK7-HiBiT Protein ≤ 25%),316 to 1000 nM,
"O=C1CCC(N2Cc3cc(C4CCCCCN4)ccc3C2=O)C(=O)N1 (stereo not drawn) [Compound 62, 3-(5-(azepan-2-yl)-1-oxoisoindolin-2-yl)piperidine-2,6-dione]",,,B (Levels of NEK7-HiBiT Protein > 25% and ≤50%),316 to 1000 nM,20 to 80%
"O=C1CCC(N2Cc3cc(C4CCC(c5ccccc5)CO4)ccc3C2=O)C(=O)N1 (single isomer, unassigned) [74 Isomer 2, 3-(1-oxo-5-(5-phenyltetrahydro-2H-pyran-2-yl)isoindolin-2-yl)piperidine-2,6-dione]",A (Normalized activity > 80%),,A (Levels of NEK7-HiBiT Protein ≤ 25%),100 to 316 nM,
"O=C1CCC(N2Cc3cc(C4CCCC(=O)N4)ccc3C2=O)C(=O)N1 (stereo not drawn) [Compound 42, 3-(1-oxo-5-(6-oxopiperidin-2-yl)isoindolin-2-yl)piperidine-2,6-dione]",,,D (Levels of NEK7-HiBiT Protein ≥ 75%),> 3160 nM,< 10%
